Assay results from patent publication US7307063B2, “Melanocortin metallopeptides for treatment of sexual dysfunction” (Palatin Technologies, Inc., priority 2001, dated 2007).
Non-standard residues stand in square brackets, D forms with d. Nle = CCCC[C@H](N)C(=O)O

Columns and labels:
[1] = target: T1, MC1-R (Mus musculus, UniProt Q01727); assay: Functional activity assay: intracellular cAMP in B16-F10 mouse melanoma cells expressing MC1-R; assay type: cell-based; conditions: Re-complexed peptide
T1 construct: MC1-R membranes were isolated from B16—F10 mouse melanoma cells; endogenous in cells; host or cells: B16-F10 mouse melanoma cells
T1 sequence (Q01727 whole entry): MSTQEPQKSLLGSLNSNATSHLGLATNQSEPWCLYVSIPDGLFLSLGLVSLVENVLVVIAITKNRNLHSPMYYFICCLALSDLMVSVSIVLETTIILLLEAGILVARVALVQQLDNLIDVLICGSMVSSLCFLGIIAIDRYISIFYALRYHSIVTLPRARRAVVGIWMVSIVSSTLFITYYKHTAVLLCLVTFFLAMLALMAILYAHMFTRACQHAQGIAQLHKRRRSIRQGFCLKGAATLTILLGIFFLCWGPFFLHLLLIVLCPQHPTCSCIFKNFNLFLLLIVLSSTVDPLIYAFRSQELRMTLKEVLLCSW
Method: (§1) Rhenium-complexed metallopeptides were prepared, with functional evaluation of peptides at MC1-R and MC4-R performed by measuring the accumulation of intracellular cAMP in HEK-293 cells expressing MC4-R or B16-F10 mouse melanoma cells expressing MC1-R. Antagonistic activity was determined by measuring the inhibition of α-MSH-induced cAMP levels following exposure to peptide. Cells, suspended in Earle's Balanced Salt Solution containing 10 mM HEPES, pH 7.5, 5 mM MgCl2, 1 mM glutamine, 0.1% albumin and 0.6 mM 3-isobutyl-1-methyl-xanthine, a phosphodiesterase inhibitor, were plated in 96 well plates at a density of 0.5×10^5 cells per well. Cells were incubated with the test peptides in the presence or absence of α-MSH for 1 hour at 37° C. cAMP levels were measured by EIA (Amersham) in the cell lysates. Data analysis and EC50 values were determined using nonlinear regression analysis with Prism Graph-Pad software.

[2] = target: T2, MC4-R (Homo sapiens, UniProt P32245); assay: Competitive binding assay: inhibition of 125I-NDP-α-MSH binding to HEK-293 membranes with cloned human receptor subtype 4; conditions: Table 1
T2 construct: expressed in transfected cells; host or cells: HEK-293
T2 sequence (P32245 whole entry): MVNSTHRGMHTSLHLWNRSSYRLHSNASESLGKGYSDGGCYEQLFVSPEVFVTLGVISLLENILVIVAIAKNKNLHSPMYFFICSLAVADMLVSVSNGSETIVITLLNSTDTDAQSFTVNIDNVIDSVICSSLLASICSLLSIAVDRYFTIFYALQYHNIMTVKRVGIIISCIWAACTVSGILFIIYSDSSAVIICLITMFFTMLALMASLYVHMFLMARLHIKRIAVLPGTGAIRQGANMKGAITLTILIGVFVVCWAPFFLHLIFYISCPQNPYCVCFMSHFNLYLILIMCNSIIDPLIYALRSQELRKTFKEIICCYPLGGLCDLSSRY
Procedure, shortened: (§2)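 Radioligand displacement: Re-metallopeptide at a chosen concentration versus 125I-NDP-α-MSH on receptor membranes. Values are percent inhibition of specific binding, defined using 1 μM α-MSH; added peptides were run in triplicate and averaged.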

[3] = target: T1, MC1-R; assay: Competitive binding assay: inhibition of 125I-NDP-α-MSH binding to membranes from B16-F10 mouse melanoma cells; conditions: Table 1
Procedure, shortened: as §2

[4] = system: Male Sprague-Dawley rats; assay: Penile erection behavior dose response animal studies; assay type: in vivo, rat; conditions: for Mean Penile Erections/Rat: 30 min observation; for Induction of penile erections (PEs) in rat model, in words: rats, IV
Method: For behavioral experiments test solutions of rhenium-complexed metallopeptides were freshly prepared in DMSO and diluted in saline. Male Sprague-Dawley rats (Taconic) weighing 200-250 g were kept on a 12 hour on/off light cycle with food and water ad libitum. All behavioral studies were performed between 10 a.m. and 5 p.m. Groups of 3-10 rats were treated with the rhenium-complexed metallopeptides at a variety of doses via intravenous (IV) injection. In a second experimental paradigm, rats were treated a selected compound intranasally (IN) using a micropipet to deliver 25 μl of solution into one nostril. Immediately after treatment, rats were placed into individual Lucite cages (27 cm long, 16 cm wide and 25 cm high) for behavioral observation.

[5] = target: T3, hMC3-R (Homo sapiens, UniProt P41968); assay: Competitive binding assay: inhibition of 125I-NDP-α-MSH binding to HEK-293 membranes with cloned human receptor subtype 3; conditions: Table 1
T3 construct: expressed in transfected cells; host or cells: HEK-293
T3 sequence (P41968 whole entry): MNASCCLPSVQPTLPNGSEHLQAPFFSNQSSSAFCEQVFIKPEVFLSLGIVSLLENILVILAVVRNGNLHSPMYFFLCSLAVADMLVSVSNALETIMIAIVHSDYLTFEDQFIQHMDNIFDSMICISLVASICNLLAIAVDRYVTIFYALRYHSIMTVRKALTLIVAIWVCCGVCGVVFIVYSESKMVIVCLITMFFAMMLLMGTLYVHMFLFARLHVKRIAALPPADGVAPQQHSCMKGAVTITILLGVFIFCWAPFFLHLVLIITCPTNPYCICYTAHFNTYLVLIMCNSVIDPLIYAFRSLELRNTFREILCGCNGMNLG
Method: Rhenium-complexed metallopeptides of the formulas given in Table 1 were prepared, with the metallopeptides complexed with rhenium using the rhenium transfer agent ReOCl3(PPh3)2 in the presence of 1,8-Diazabicyclo[5,4,0] undec-7-ene as a base, as disclosed in International Application PCT/US00/16396, filed Jun. 14, 2000, Melanocortin Metallopeptide Constructs, Combinatorial Libraries and Applications, incorporated by reference herein. Affinities of compounds were measured using membranes from HEK-293 cells containing cloned human melanocortin receptor subtypes 3, 4 and 5. MC1-R membranes were isolated from B16—F10 mouse melanoma cells. The assay tube also contained a chosen concentration of the test peptide of this invention, complexed to a rhenium metal ion as indicated, for determining its efficacy in inhibiting the binding of ^125I-NDP-α-MSH to its receptor. Non-specific binding was measured by complete inhibition of binding of ^125I-NDP-α-MSH in the assay with the presence of 1 μM α-MSH. 100% specific binding was defined as the difference in radioactivity (cpm) bound to cell membranes in the absence and presence of 1 μM α-MSH. The cpm obtained in presence of test compounds were normalized with respect to 100% specific binding to determine the percent inhibition of ^125I-NDP-α-MSH binding.

[6] = target: T4, hMC5-R (Homo sapiens, UniProt P33032); assay: Competitive binding assay: inhibition of 125I-NDP-α-MSH binding to HEK-293 membranes with cloned human receptor subtype 5; conditions: Table 1
T4 construct: expressed in transfected cells; host or cells: HEK-293
T4 sequence (P33032 whole entry): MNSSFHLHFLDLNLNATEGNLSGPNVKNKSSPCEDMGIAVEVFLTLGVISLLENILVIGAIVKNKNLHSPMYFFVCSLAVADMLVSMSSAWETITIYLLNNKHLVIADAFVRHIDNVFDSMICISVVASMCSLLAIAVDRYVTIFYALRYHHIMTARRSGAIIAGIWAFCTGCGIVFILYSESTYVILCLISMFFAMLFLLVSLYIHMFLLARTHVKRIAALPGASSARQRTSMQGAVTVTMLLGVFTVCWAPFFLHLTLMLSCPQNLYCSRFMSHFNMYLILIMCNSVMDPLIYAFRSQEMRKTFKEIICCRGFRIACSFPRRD
Procedure, shortened: as §2

[7] = target: T2, MC4-R; assay: Functional activity assay: intracellular cAMP in HEK-293 cells expressing MC4-R; assay type: cell-based; conditions: Re-complexed peptide
Method: as §1

[8] = system: Male Sprague-Dawley rats; assay: Combination penile erection behavior studies: antagonist IV before IN agonist; assay type: in vivo, rat; conditions: effect induced by 50 µg/kg intranasal Ac-Nle-cyclo(-Asp-His-D-Phe-Arg-Trp-Lys)-OH;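 on Mean Penile Erections/Rat: Erections counted over 30 min observation after IN dosing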;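 on Percent with Penile Erections: Erections counted over 30 min observation after IN dosing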
[9] = system: Male Sprague-Dawley rats; assay: as above; assay type: in vivo, rat
Method: Conditions were as in Example 3 except as noted. Groups of 5-6 rats received an IV dose of either placebo or antagonist 5 minutes prior to an IN dose of either placebo or agonist. Two antagonists were used: ReO[Heptanoyl-Ser(Bzl)-D-Nal 2′-Arg-Trp-Cys-NH2] and SHU9119 (Hruby V J, Lu D, Sharma S D, et al. J Med Chem 38:3454-3461 (1995)), Ac-Nle-cyclo(-Asp-His-D-Nal 2′-Arg-Trp-Lys)-NH2. The agonist used was Ac-Nle-cyclo(-Asp-His-D-Phe-Arg-Trp-Lys)-OH. Immediately after IN treatment, rats were placed into individual Lucite cages for observation. […] In combination studies, the antagonist was dosed IV 5 minutes prior to a 50 μg/kg IN dose of Ac-Nle-cyclo(-Asp-His-D-Phe-Arg-Trp-Lys)-OH.
These studies were conducted as described above in Example 4 with metallopeptide antagonists administered IV five minutes before IN administration of 50 μg/kg Ac-Nle-cyclo(-Asp-His-D-Phe-Arg-Trp-Lys)-OH. […] The potency of these antagonists also correlated with their relative binding affinities in the in vitro binding assays.

[10] = combination: antagonist 200 μg/kg IV 5 min prior to 50 μg/kg IN Ac-Nle-cyclo(-Asp-His-D-Phe-Arg-Trp-Lys)-OH

Substance | Induction of penile erections (PEs) in rat model, in words [4] | % Inhibition of Binding hMC4-R ([2]; 1 μM Re-complexed peptide) [%] | Functional activity at MC4-R (cAMP accumulation; inhibition of α-MSH-induced cAMP) [7] | % Inhibition of Binding MC1-R ([3]; 1 μM Re-complexed peptide) [%] | Mean Penile Erections/Rat ([4]; IV 150 μg/kg) | Percent PE Inhibition ([8]; antagonist 200 μg/kg IV) [%] | % Inhibition of Binding hMC3-R ([5]; 1 μM Re-complexed peptide) [%] | % Inhibition of Binding hMC5-R ([6]; 1 μM Re-complexed peptide) [%] | Percent PE Inhibition ([8]; antagonist 100 μg/kg IV) [%] | Percent PE Inhibition ([8]; antagonist 150 μg/kg IV) [%] | other results
Ac-Nle-Ala-His-D-Phe-Arg-Cys-Trp-NH2 ({Ac-Nle-Ala-H2N}-[dF]RCW-NH2; also: ReO complex) | inactive in inducing PEs |  |  |  |  |  |  |  |  |  | Functional activity at MC1-R (cAMP accumulation) [1]: MC1-R specific agonist; % Inhibition of Binding hMC4-R ([2]; 10 μM Re-complexed peptide): 29%; % Inhibition of Binding MC1-R ([3]; 10 μM Re-complexed peptide): 97%; Mean Penile Erections/Rat ([4]; IV 10 μg/kg): 0; Mean Penile Erections/Rat ([4]; IV 50 μg/kg): 0; % Inhibition of Binding hMC3-R ([5]; 10 μM Re-complexed peptide): 14%; % Inhibition of Binding hMC5-R ([6]; 10 μM Re-complexed peptide): 22%
Heptanoyl-Ser(Bzl)-D-Nal 2′-Arg-D-Trp-Cys-NH2 | inactive in inducing PEs | 66 | MC4-R antagonists | 1 | 0 | 50 | 6 | 60 |  |  | Percent PE Inhibition ([8]; antagonist 500 μg/kg IV): 40%
D-(N-Bzl)Nal 2′-Arg-Trp-Cys-NH2 | inactive in inducing PEs | 99 | MC4-R antagonists | 34 | 0 |  | 51 | 95 | 14.28 | 100 | 
Heptanoyl-Ser(Bzl)-D-Nal 2′-Arg-Trp-Cys-NH2 | inactive in inducing PEs | 97 | MC4-R antagonists | 19 | 0 | 100 | 64 | 98 | 14.28 | 50 | Inhibitory effect on agonist-induced PE response, in words ([9]; IV 0, 100, 150 and 200 μg/kg, FIG. 8): increased with dose; Mean Penile Erections/Rat ([9]; antagonist alone, 200 μg/kg IV): 0; Percent with Penile Erections ([9]; antagonist alone, 200 μg/kg IV): 0%; Mean Penile Erections/Rat [9, 10]: 0; Percent with Penile Erections [9, 10]: 0%; Effect on erectile behavior induced by Ac-Nle-cyclo(-Asp-His-D-Phe-Arg-Trp-Lys)-OH, in words ([9]; rats, antagonist IV before IN agonist): blocked
